Laboratory results: article PMC5429796, “Engineered P450 biocatalysts show improved activity and regio-promiscuity in aromatic nitration” (Scientific Reports, 2017)

Assays:
TxtE [1] = target: T1, TxtE (Streptomyces scabiei, UniProt C9ZDC6); assay: UV-Vis difference spectroscopy (Type I shift) titration of Trp analogues to 1.5 µM purified P450 in 25 mM Tris-HCl, pH 8.0, fitted to Michaelis-Menten type equation; at least three repeats.; format: binding; conditions: n = 3
T1 construct: wild type, pET28b construct, Ni-NTA purified
T1 sequence (C9ZDC6 1-406): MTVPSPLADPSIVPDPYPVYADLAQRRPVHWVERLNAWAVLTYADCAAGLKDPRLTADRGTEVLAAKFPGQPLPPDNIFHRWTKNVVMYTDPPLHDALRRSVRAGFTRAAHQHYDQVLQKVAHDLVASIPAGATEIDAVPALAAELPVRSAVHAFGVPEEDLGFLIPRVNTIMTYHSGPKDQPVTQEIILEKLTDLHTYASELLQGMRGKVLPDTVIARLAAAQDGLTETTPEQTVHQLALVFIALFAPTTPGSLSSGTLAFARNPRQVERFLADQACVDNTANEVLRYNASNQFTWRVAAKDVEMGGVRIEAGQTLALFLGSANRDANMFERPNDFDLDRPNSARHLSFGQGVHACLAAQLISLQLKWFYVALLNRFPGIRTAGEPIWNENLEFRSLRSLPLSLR
Method: (§1) The ferric heme of enzymes was then saturated by bubbling carbon monoxide (Airgas) and the spectra of the saturated enzyme solutions were recorded. Sodium dithionite solution (30 μL, 0.5 M) was then added to reduce ferric ion, and reduced spectra were taken subsequently. CO reduced difference spectra of all P450s were created by […]. Data were further analyzed by Excel. […] The changes in absorbance (ΔA) were determined by subtracting the absorbance at ~420 nm from that at ~390 nm. Data were then fitted to the equation of ΔA = ΔAmax[L]/(Kd + [L]) using GraphPad Prism 4.
(§2) in 25 mM Tris-HCl, pH 8.0. All experiments were repeated at least three times. Data
(§3) were fitted to the Michaelis-Menten equation.

TB14 [2] = target: T2, TB14 (UniProt C9ZDC6+P14779); assay: Binding affinities of Trp analogues toward TB14 (spectral shift); conditions: for Kd: read-out: TB14 Kd, 1.5 µM enzyme, 25 mM Tris-HCl pH 8.0
T2 construct: BM3R: reductase domain of CYP102A1 (P450BM3); made in house; host or cells: E. coli BL21-GOLD (DE3), pET28b-TxtE-BM3R
Method: as §1
(§4) in 25 mM Tris-HCl, pH 8.0. All experiments were repeated at least three times. […]

TB14 [3] = target: T2, TB14; assay: Nitration of Trp analogues by TB14 (HPLC, 45 min); format: biochemical; conditions: for nitrated a significant amount by TB14: after 45 mins, 0.5 mM substrate, 1.5 µM P450
Method: (§5) The reactions were prepared as described previously and incubated at 20 °C, 300 rpm for 45 minutes. All experiments were repeated at least three times.
(§6) After centrifugation, 10 μl solutions were analyzed by HPLC. […] All reactions were independently repeated at least three times. In TTN and coupling efficiency studies, 0.5 µM P450s and 0.5 mM substrate were used. […] All experiments were performed at least in triplication.

TxtE [4] = target: T3, TxtE (Streptomyces scabiei, UniProt C9ZDC6); format: biochemical, Streptomyces scabies; parameters: made in house; conditions: for nitrated a significant amount by TxtE: after 45 mins, 0.5 mM substrate, 1.5 µM P450
Method: as §5, §6

TB14 [5] = target: T2, TB14; assay: Scaled-up TB14 nitration of 4-Me-DL-Trp (Marfey's derivatization, NMR); format: biochemical; conditions: scaled-up reaction with 4-Me-DL-Trp
Method: The reactions in a 200-ml flask were incubated at 20 °C, 250 rpm overnight, and then terminated by 20 mL methanol or acidification to pH 1.0 with 6 M HCl. After centrifugation, the supernatants were concentrated in vacuo and then freeze-dried. The products were redissolved in 3 ml methanol for semi-preparation[22].
4-Me-Trp and nitrated 4-Me-Trp from enzyme reactions were reacted with Marfey’s reagent following manufacture manual (Thermo Scientific). Derivatized products were analyzed by LC-MS with A SHIMADZU Prominence UPLC system fitted with a Waters SymmetryShieldTM RP-C18 column (3.5 µm, 4.6 × 100 mm) and a Linear Ion Trap Quadrupole LC/MS/MS Mass Spectrometer system. The flow rate was 0.5 mL/min. The column was eluted with 90% solvent A (0.05 M triethylammonium acetate, pH 3.0), 10% solvent B (acetonitrile) for 2 min and then with a linear gradient of 10–50% solvent B for 60 min. The column was then cleaned by 50% solvent B for 5 min followed by a re-equilibration with 10% solvent B for 2 min. For MS detection, the turbo spray conditions used were: curtain gas: 30 psi; ion spray voltage: 5000 V; temperature: 550 °C; ion source gas 1: 30 psi; ion source gas 2: 20 psi.

TxtE [6] = target: T3, TxtE; assay: biochemical; format: binding, Streptomyces scabies; parameters: made in house; host or cells: E. coli BL21-GOLD (DE3), pET28b
Method: as §1, §2, §3

TB14 [7] = target: T4, TB14 (UniProt C9ZDC6); assay: Binding affinities of Trp analogues toward TB14 (spectral shift); conditions: 1.5 µM enzyme, 25 mM Tris-HCl pH 8.0
T4 construct: BM3R: reductase domain of CYP102A1 (P450BM3); made in house; host or cells: E. coli BL21-GOLD (DE3), pET28b-TxtE-BM3R
Method: as §1, §4

TB27 = assay: UV-Vis difference spectroscopy (Type I shift, ΔA ~390 minus ~420 nm) titration of Trp to 1.5 µM purified P450 in 25 mM Tris-HCl, pH 8.0, hyperbolic fit; at least three repeats.; format: binding; conditions: n = 3
Method: (§7) We next determined coupling efficiency to evaluate the extent to which linker length and structural swapping may affect electron transfer compatibility during nitration reaction (Table 1). […] Additionally, we determined total turnover number (TTN) as nmol product per nmol P450 in all reactions (Table 1).
as §1

TB13S = assay: as above; format: binding; conditions: n = 3
Method: as §7, §1

TB24 = assay: as above; format: binding; conditions: n = 3
Method: as §7, §1

TB22 = assay: as above; format: binding; conditions: n = 3
Method: as §7, §1

TB17 = assay: as above; format: binding; conditions: n = 3
Method: as §7, §1

TB12 = assay: as above; format: binding; conditions: n = 3
Method: as §7, §1

TB16 = assay: as above; format: binding; conditions: n = 3
Method: as §7, §1

TB11 = assay: as above; format: binding; conditions: n = 3
Method: as §7, §1

TB19 = assay: as above; format: binding; conditions: n = 3
Method: as §7, §1

TB13 = assay: as above; format: binding; conditions: n = 3
Method: as §7, §1

TB15 = assay: as above; format: binding; conditions: n = 3
Method: as §7, §1

TB13-Q = assay: as above; format: binding; conditions: n = 3
Method: as §7, §1

[8] = read-out: TxtE Kd (µM), TB14 Kd

NC(Cc1c[nH]c2cccc(F)c12)C(=O)O (racemic) [4-F-Trp, 4-fluoro-DL-tryptophan]
Kd (TxtE [1]): 190 µM

Cc1cccc2[nH]cc(CC(N)C(=O)O)c12 (racemic) [4-Me-Trp, 4-Me-DL-Tryptophan]
binding affinity, times higher than 4-F-DL-Trp (TB14 [2]; from Table S1): 13 times | Kd (TB14 [2]): 14 ± 1 µM | nitration by TB14, times favoured over 4-F-DL-Trp (TB14 [3]; 45 min, Fig. 3): about 8 times | nitrated a significant amount by TB14 (TB14 [3]): nitrated a significant amount | nitrated a significant amount by TxtE (TxtE [4]): nitrated a significant amount

Cc1cccc2[nH]cc(CC(N)C(=O)O)c12 (racemic) [4-Me-Trp, 4-methyl-DL-tryptophan]
Kd (TxtE [1]): 10 µM

Cc1ccc2[nH]cc(CC(N)C(=O)O)c2c1 (racemic) [5-Me-Trp, 5-methyl-DL-tryptophan]
Kd (TxtE [1]; [8]): 35 µM

COc1ccc2[nH]cc(CC(N)C(=O)O)c2c1 (racemic) [5-MeO-Trp, 5-methoxy-DL-tryptophan]
Kd (TxtE [1]; [8]): 29 µM

NC(Cc1c[nH]c2cc(F)ccc12)C(=O)O (racemic) [6-F-Trp, 6-fluoro-DL-tryptophan]
Kd (TxtE [1]): 73 µM

Cc1cccc2c(CC(N)C(=O)O)c[nH]c12 (racemic) [7-Me-Trp, 7-methyl-DL-tryptophan]
Kd (TxtE [1]; [8]): 13 µM

O=C(O)C1Cc2c([nH]c3ccccc23)CN1 (stereo not drawn) [2,3,4,9-Tetrahydro-1H-β-carboline-3-carboxynate]
Kd (TB14 [2]): 730 ± 86 µM

O=C(O)C1Cc2c([nH]c3ccccc23)CN1 (stereo not drawn) [2,3,4,9-tetrahydro-1H-β-carboline-3-carboxylate]
Kd (TxtE [1]; [8]): 580 µM

NC(Cc1c[nH]c2cccc(F)c12)C(=O)O (centres unmarked) [4-F-Trp]
Kd (TB14 [2]): 180 ± 13 µM | nitrated a significant amount by TB14 (TB14 [3]): not

Cc1cccc2[nH]cc(C[C@H](N)C(=O)O)c12 [4-Me-L-Trp]
consumption of substrate in the TB14 reaction (TB14 [5]): ~ 85%

N[C@@H](Cc1c[nH]c2ccc(F)cc12)C(=O)O [5-F-L-Trp, 5-fluoro-L-tryptophan]
Kd (TxtE [1]): 84 µM

N[C@@H](Cc1c[nH]c2ccc(F)cc12)C(=O)O [5-F-L-Trp]
Kd (TB14 [2]): 78 ± 6 µM | substrate ranking in the TB14 reaction (TB14 [3]; 45 min): comparable to Trp as the best | nitrated a significant amount by TB14 (TB14 [3]): nitrated a significant amount | substrate ranking in the TxtE reaction (TxtE [4]; 45 min): best substrate of TxtE | nitrated a significant amount by TxtE (TxtE [4]): nitrated a significant amount

Cc1ccc2[nH]cc(CC(N)C(=O)O)c2c1 (centres unmarked) [5-Me-Trp]
Kd (TB14 [2]): 30 ± 1 µM | nitrated a significant amount by TB14 (TB14 [3]): nitrated a significant amount | nitrated a significant amount by TxtE (TxtE [4]): nitrated a significant amount

COc1ccc2[nH]cc(CC(N)C(=O)O)c2c1 (centres unmarked) [5-MeO-Trp]
Kd (TB14 [2]): 26 ± 2 µM | nitrated a significant amount by TB14 (TB14 [3]): not

N[C@@H](Cc1c[nH]c2ccc(O)cc12)C(=O)O [5-OH-L-Trp, 5-hydroxy-L-tryptophan]
Kd (TxtE [1]; [8]): 340 µM

N[C@@H](Cc1c[nH]c2ccc(O)cc12)C(=O)O [5-OH-L-Trp]
Kd (TB14 [2]): 450 ± 16 µM

N[C@@H](Cc1c[nH]c2cc(F)ccc12)C(=O)O [6-F-Trp]
Kd (TB14 [2]): 65 ± 5 µM | nitrated a significant amount by TB14 (TB14 [3]): nitrated a significant amount | nitrated a significant amount by TxtE (TxtE [4]): nitrated a significant amount

N[C@@H](Cc1c[nH]c2ncccc12)C(=O)O [7-Azatryptophan]
Kd (TxtE [6]): 17 ± 1 µM | Kd (TB14 [7]): 26 ± 1 µM

Cc1cccc2c(CC(N)C(=O)O)c[nH]c12 (centres unmarked) [7-Me-Trp]
Kd (TB14 [2]): 11 ± 1 µM | nitrated a significant amount by TB14 (TB14 [3]): not

N[C@H](Cc1c[nH]c2ccccc12)C(=O)O [D-Trp, D-tryptophan]
Kd (TxtE [1]; [8]): 430 µM

N[C@H](Cc1c[nH]c2ccccc12)C(=O)O [D-Trp]
Kd (TB14 [2]): 470 ± 25 µM

O=C(O)C(=O)Cc1c[nH]c2ccccc12 [Indole-3-pyruvic acid]
Kd (TxtE [6]): 390 ± 43 µM | Kd (TB14 [7]): 480 ± 32 µM

N[C@@H](Cc1c[nH]c2ccccc12)C(=O)O [L-Trp, L-tryptophan]
Kd (TxtE [6]): 25 ± 1 µM | Kd (TB14 [7]): 17 ± 1 µM

N[C@H](CO)Cc1c[nH]c2ccccc12 [L-tryptophanol]
Kd (TB14 [2]): 280 ± 43 µM | Kd (TxtE [1]; [8]): 220 µM

NCCc1c[nH]c2ccc(O)cc12 [Serotonin]
Kd (TxtE [6]): 320 ± 31 µM | Kd (TB14 [7]): 310 ± 39 µM

N[C@@H](Cc1c[nH]c2ccccc12)C(=O)O [Trp, L-tryptophan]
Kd (TB27): 16.2 ± 1.1 µM | Kd (TB13S): 19.3 ± 0.6 µM | Kd (TB24): 14.9 ± 0.3 µM | Kd (TB22): 27.1 ± 1.3 µM | Kd (TB17): 15.5 ± 0.6 µM | Kd (TB12): 22.3 ± 1.4 µM | Kd (TB16): 18.9 ± 1 µM | Kd (TB11): 16.2 ± 0.6 µM | Kd (TB19): 16 ± 0.8 µM | Kd (TB13): 21.3 ± 0.4 µM | Kd (TB15): 21.4 ± 0.9 µM | Kd (TB13-Q): 21.5 ± 0.8 µM

NCCc1c[nH]c2ccccc12 [Tryptamine]
Kd (TxtE [6]): 68 ± 6 µM | Kd (TB14 [7]): 60 ± 8 µM

c1ccc2[nH]ccc2c1 [indole]
interaction with TxtE in spectroscopic analysis (TxtE [6]): no detectable level of interaction | interaction with TB14 in spectroscopic analysis (Type I spectral shift) (TB14 [2]): no detectable level of interaction

CC(N)(Cc1c[nH]c2ccccc12)C(=O)O (stereo not drawn) [α-Me-Trp]
Kd (TxtE [6]; read-out: TxtE Kd, 1.5 µM enzyme, 25 mM Tris-HCl pH 8.0): 100 ± 4 µM | Kd (TB14 [2]): 95 ± 9 µM | nitrated a significant amount by TB14 (TB14 [3]): not
